Measurements reported in PMC8286840, “Identifying SARS-CoV-2 antiviral compounds by screening for small molecule inhibitors of Nsp3 papain-like protease” (Biochemical Journal, 2021).
Counter-ions that a name gives are not always drawn. Like-named read-outs stand apart in the source and are kept apart here.

Legend:
[1] = molecular target: T1, SARS-CoV-2 PLpro (nsp3 1564–1878) (Severe acute respiratory syndrome coronavirus 2, UniProt P0DTD1); test: biochemical; set-up: FRET-quenched peptide (Pro3) cleavage by PLpro, 10 min pre-incubation, slope over 20 min, normalised to no-compound control; settings: low concentration screen, read-out: % of control remaining
[2] = molecular target: T1, SARS-CoV-2 PLpro (nsp3 1564–1878); test: biochemical; set-up: FRET-quenched peptide (Pro3) cleavage by PLpro, 10 min pre-incubation, slope over 20 min, normalised to no-compound control; settings: high concentration screen, read-out: % of control remaining

CN1C(=O)C(c2c[nH]c3ccccc23)=C(c2c[nH]c3ccccc23)C1=O [Bisindolylmaleimide V]
remaining activity at 1.25 µM ([1]; Well no.=2339): 92.9%
remaining activity at 3.75 µM ([2]; Well no.=2339): 91.1%

CC(=O)[C@H]1CC[C@H]2[C@@H]3CC=C4C[C@@H](O)CC[C@]4(C)[C@H]3CC[C@]12C [Pregnenolone]
remaining activity at 1.25 µM ([1]; Well no.=2151): 103%
remaining activity at 1.25 µM ([1]; Well no.=6277): 106%
remaining activity at 1.25 µM ([1]; Well no.=6919): 108%
remaining activity at 3.75 µM ([2]; Well no.=2151): 103%
remaining activity at 3.75 µM ([2]; Well no.=6277): 102%
remaining activity at 3.75 µM ([2]; Well no.=6919): 106%

CCCN1CCO[C@@H]2c3cc(O)ccc3OC[C@H]21 (racemic)
remaining activity at 1.25 µM ([1]; Well no.=1505): 96%
remaining activity at 3.75 µM ([2]; Well no.=1505): 96.1%

CNC[C@H](O)c1cccc(O)c1 [Phenylephrine hydrochloride]
remaining activity at 1.25 µM ([1]; Well no.=958): 101%
remaining activity at 3.75 µM ([2]; Well no.=958): 103%

CCCCCCCCCCCCCCCC(=O)NCCc1ccc(O)c(O)c1 [Palmitoyl dopamine]
remaining activity at 1.25 µM ([1]; Well no.=4261): 101%
remaining activity at 3.75 µM ([2]; Well no.=4261): 98.2%

C[C@H]1CC[C@@H]2[C@@H](C)[C@H]3[C@H](C[C@H]4[C@@H]5CC=C6C[C@@H](O[C@@H]7O[C@H](CO)[C@H](O)[C@H](O[C@@H]8O[C@H](CO)[C@@H](O)[C@H](O)[C@H]8O)[C@H]7O[C@H]7O[C@@H](C)[C@H](O)[C@@H](O)[C@H]7O)CC[C@]6(C)[C@H]5CC[C@]34C)N2C1 (racemic)
remaining activity at 1.25 µM ([1]; Well no.=3465): 105%
remaining activity at 3.75 µM ([2]; Well no.=3465): 105%

C/C(=N\NC(=S)N1CCC1)c1ccccn1 [NSC319726]
remaining activity at 1.25 µM ([1]; Well no.=6736): 102%
remaining activity at 3.75 µM ([2]; Well no.=6736): 102%

CCC(Sc1nnc2c(n1)[nH]c1ccccc12)C(=O)N1c2ccccc2Sc2ccccc21 (stereo not shown) [10-[2-(5H-[1,2,4]triazino[5,6-b]indol-3-ylsulfanyl)butanoyl]-10H-phenothiazine]
remaining activity at 1.25 µM ([1]; Well no.=5509): 110%
remaining activity at 3.75 µM ([2]; Well no.=5509): 108%

COc1cc2c(cc1OC)[C@H]1CC(=O)[C@H](CC(C)C)CN1CC2 [(+)-Tetrabenazine]
remaining activity at 1.25 µM ([1]; Well no.=8086): 107%
remaining activity at 3.75 µM ([2]; Well no.=8086): 108%

CC(C)c1ccc(NC(=O)Cn2cnc3c2c(=O)n(C)c(=O)n3C)cc1 [HC-030031]
remaining activity at 1.25 µM ([1]; Well no.=5225): 94%
remaining activity at 3.75 µM ([2]; Well no.=5225): 89.7%

C=C1/C(=C\C=C2/CCC[C@]3(C)[C@@H]([C@H](C)/C=C/[C@@H](O)C4CC4)CC[C@@H]23)C[C@@H](O)C[C@@H]1O [Calcipotriene]
remaining activity at 1.25 µM ([1]; Well no.=1760): 96.1%
remaining activity at 3.75 µM ([2]; Well no.=1760): 96.3%

CC1(C)CN2C(CSC(=NC3CCCCC3)NC3CCCCC3)=CSC2=N1 [IT1t (dihydrochloride)]
remaining activity at 1.25 µM ([1]; Well no.=6942): 94.3%
remaining activity at 1.25 µM ([1]; Well no.=8463): 107%
remaining activity at 3.75 µM ([2]; Well no.=6942): 93.3%
remaining activity at 3.75 µM ([2]; Well no.=8463): 106%

O=C1NC(=O)c2cc(Nc3ccc(F)cc3)c(Nc3ccc(F)cc3)cc21 [CGP 53353 - 5,6-bis[(4-Fluorophenyl)amino]-1H-isoindole-1,3(2H)-dione]
remaining activity at 1.25 µM ([1]; Well no.=2530): 101%
remaining activity at 3.75 µM ([2]; Well no.=2530): 102%

c1ccc(Cn2c(-c3ccc(OC[C@H](C4CCNCC4)n4c(-c5ccccc5)nc5ccccc54)cc3)nc3ccccc32)cc1 [Deltarasin]
remaining activity at 1.25 µM ([1]; Well no.=8476): 95.2%
remaining activity at 3.75 µM ([2]; Well no.=8476): 92.7%

C=CC[N+]1([C@H]2C[C@H]3[C@@H]4CC[C@H]5C[C@H](O)[C@@H](N6CCOCC6)C[C@]5(C)[C@H]4CC[C@]3(C)[C@H]2OC(C)=O)CCCC1 [Rocuronium bromide]
remaining activity at 1.25 µM ([1]; Well no.=2019): 103%
remaining activity at 3.75 µM ([2]; Well no.=2019): 105%

Cc1[nH]c2ccccc2c1CCNC(=O)c1cccs1 [CK-636]
remaining activity at 1.25 µM ([1]; Well no.=5636): 102%
remaining activity at 3.75 µM ([2]; Well no.=5636): 100%

Cc1cc2c(cc1CC(=O)c1sccc1S(=O)(=O)Nc1onc(C)c1Cl)OCO2 [Sitaxsentan (sodium)]
remaining activity at 1.25 µM ([1]; Well no.=8533): 105%
remaining activity at 3.75 µM ([2]; Well no.=8533): 106%

CN(C)N(C)C(=O)[C@@]1(Cc2ccccc2)CCCN(C(=O)[C@@H](Cc2c[nH]c3ccccc23)NC(=O)C(C)(C)N)C1 [Anamorelin (hydrochloride)]
remaining activity at 1.25 µM ([1]; Well no.=7291): 98.3%
remaining activity at 3.75 µM ([2]; Well no.=7291): 97.8%

O=C(CBr)N1CC([N+](=O)[O-])([N+](=O)[O-])C1 [RRx-001]
remaining activity at 1.25 µM ([1]; Well no.=8632): 105%
remaining activity at 3.75 µM ([2]; Well no.=8632): 98.9%

CN(C)CCC(c1ccc(Cl)cc1)c1ccccn1 (single isomer, unassigned; (+)) [(+)-Chlorpheniramine maleate]
remaining activity at 1.25 µM ([1]; Well no.=130): 105%
remaining activity at 3.75 µM ([2]; Well no.=130): 105%

CN1CCN(CCCCN2C(=O)CN(/N=C/c3ccc(-c4ccc(Cl)cc4)o3)C2=O)CC1 [1-({(E)-[5-(4-chlorophenyl)-2-furyl]methylidene}amino)-3-[4-(4-methyl-1-piperazinyl)butyl]-2,4-imidazolidinedione dihydrochloride]
remaining activity at 1.25 µM ([1]; Well no.=5603): 97.6%
remaining activity at 3.75 µM ([2]; Well no.=5603): 101%

O=C(O)/C=C/c1c[nH]c2ccccc12 [3-Beta-Indoleacrylic acid]
remaining activity at 1.25 µM ([1]; Well no.=3773): 99%
remaining activity at 3.75 µM ([2]; Well no.=3773): 101%

O=C(C[S+]([O-])C(c1ccccc1)c1ccccc1)NO (stereo not shown) [Adrafinil]
remaining activity at 1.25 µM ([1]; Well no.=6233): 102%
remaining activity at 3.75 µM ([2]; Well no.=6233): 94.6%

Nc1nc2c(ncn2[C@H]2C[C@H](O)[C@@H](CO)O2)c(=O)[nH]1 [2'-Deoxyguanosine]
remaining activity at 1.25 µM ([1]; Well no.=6209): 102%
remaining activity at 1.25 µM ([1]; Well no.=7772): 99.2%
remaining activity at 3.75 µM ([2]; Well no.=6209): 97.7%
remaining activity at 3.75 µM ([2]; Well no.=7772): 101%

CCCCC/C=C\C=C\C(O)CCCCCCCC(=O)O (racemic)
remaining activity at 1.25 µM ([1]; Well no.=4378): 103%
remaining activity at 3.75 µM ([2]; Well no.=4378): 103%

O=C(O)CCCCCCCCC(=O)O [Decanedioic acid]
remaining activity at 1.25 µM ([1]; Well no.=6453): 93%
remaining activity at 3.75 µM ([2]; Well no.=6453): 95.8%

c1cc(-c2cnn3cc(-c4ccc(OCCN5CCCCC5)cc4)cnc23)ccn1 [AMPK Inhibitor, Compound C]
remaining activity at 1.25 µM ([1]; Well no.=2324): 98.4%
remaining activity at 3.75 µM ([2]; Well no.=2324): 103%

CN(Cc1cc(Br)cc(Br)c1N)C1CCCCC1 [Bromhexine]
remaining activity at 1.25 µM ([1]; Well no.=2177): 98.4%
remaining activity at 3.75 µM ([2]; Well no.=2177): 102%

O=C(NCc1ccco1)c1ccc2c(c1)N(Cc1c(F)cccc1Cl)C(=O)CS2 [STING agonist-1]
remaining activity at 1.25 µM ([1]; Well no.=8643): 102%
remaining activity at 3.75 µM ([2]; Well no.=8643): 103%

C[n+]1c2ccccc2nc2ccccc21 [5-methylphenazin-5-ium methyl sulfate]
remaining activity at 1.25 µM ([1]; Well no.=5668): 91.9%
remaining activity at 3.75 µM ([2]; Well no.=5668): 89.8%

NS(=O)(=O)c1ccc(S(=O)(=O)Nc2cccc3c(Cl)c[nH]c23)cc1 [Indisulam]
remaining activity at 1.25 µM ([1]; Well no.=6068): 94.4%
remaining activity at 3.75 µM ([2]; Well no.=6068): 95%
